Source: patent publication US20050239832A1, “Methods of treatment of amyloidosis using bi-cyclic aspartyl protease inhibitors” (priority 2004, published 2005)

Experiments:
[1] = tested on: A-beta; test: Efficacy of compounds to inhibit A-beta concentration (% inhibition vs vehicle control); type: in vivo, rat
Experimental: Efficacious compounds of the present invention are those able to decrease the amount of A-beta produced compared to a control, where beta-secretase mediated cleavage is observed and measured in the absence of the compounds. Detection of efficacy can be by analysis of A-beta levels, for example, by immunoassay, fluorometric or chromogenic assay, HPLC, or other means of detection. The efficacy of the compounds of formula (I) was determined as a percentage inhibition corresponding to A-beta concentrations for tissue treated and untreated with a compound of formula (I).
The invention encompasses compounds of formula (I) that are efficacious. Efficacy is calculated as a percentage of concentrations as follows: Efficacy=(1−(total A-beta in dose group/total A-beta in vehicle control))*100% wherein the “total A-beta in dose group” equals the concentration of A-beta in the tissue, (e.g., rat brain) treated with the compound, and the “total A-beta in vehicle control” equals the concentration of A-beta in the tissue, yielding a % inhibition of A-beta production. Statistical significance is determined by p-value<0.05 using the Mann Whitney t-test. See, for example, Dovey et al., J. Neurochemistry, 2001, 76:173-181. […]

[2] = tested on: HEKp293 cells transfected with APP751 containing the Swedish mutation (A-beta); test: cells; type: cell-based; settings: Homo sapiens, read-out: Cell EC50 (nM)
From the text: An exemplary assay for the analysis of inhibition of beta-secretase activity utilizes the human embryonic kidney cell line HEKp293 (ATCC Accession No. CRL-1573) transfected with APP751 containing the naturally occurring double mutation Lys651Met652 to Asn651Leu652 (numbered for APP751), commonly called the Swedish mutation and shown to overproduce A-beta (Citron et al., 1992, Nature, 360:672-674), as described in U.S. Pat. No. 5,604,102.
At the end of the treatment period, conditioned media is analyzed for beta-secretase activity, for example, by analysis of cleavage fragments. A-beta can be analyzed by immunoassay, using specific detection antibodies.

[3] = molecular target: BACE (Homo sapiens, UniProt P56817); test: BACE EC50 (enzyme inhibition, Table on oral bioavailability); type: biochemical
[4] = Oral bioavailability in the male Sprague-Dawley rat (IV and PO); type: in vivo; settings: plasma, 10 mg/kg
Experimental: The invention encompasses compounds of formula (I) that are orally bioavailable. Generally, oral bioavailability is defined as the fraction of orally administered dose reaching systemic circulation. Oral bioavailability can be determined following both an intravenous (IV) and oral (PO) administration of a test compound.
Oral bioavailability was determined in the male Sprague-Dawley rat following both IV and PO administration of test compound. Two month-old male rats (250-300 g) were surgically implanted with polyethylene (PE-50) cannula in the jugular vein while under isoflurane anesthesia the day before the in-life phase. Animals were fasted overnight with water ad libitum, then dosed the next day. The dosing regime. consisted of either a 5 mg/kg (2.5 mL/kg) IV dose (N=3) administered to the jugular vein cannula, then flushed with saline, or a 10 mg/kg (5 mL/kg) PO dose (N=3) by esophageal gavage. Compounds were formulated with 10% Solutol in 5% dextrose at 2 mg/mL. Subsequent to dosing, blood was collected at 0.016 (IV only), 0.083, 0.25, 0.5, 1, 3, 6, 9, and 24 h post administration, and heparinized plasma was recovered following centrifugation.
Compounds were extracted from samples following precipitation of the plasma proteins by methanol. The resulting supernatants were evaporated to dryness and reconstituted with chromatographic mobile phase (35% acetonitrile in 0.1% formic acid) and injected onto a reverse phase C18 column (2×50 mm, 5 μm, BDS Hypersil). Detection was facilitated with a multi-reaction-monitoring experiment on a tandem triple quadrupole mass spectrometer (LC/MS/MS) following electrospray ionization. Experimental samples were compared to calibration curves prepared in parallel with aged match rat plasma and quantitated with a weighted 1/x linear regression. The lower limit of quantization (LOQ) for the assay was typically 0.5 ng/mL.
Oral bioavailability (% F) is calculated from the dose normalized ratio of plasma exposure following oral administration to the intravenous plasma exposure in the rat by the following equation % F=(AUCpo/AUCiv)×(Div/Dpo)×100% where D is the dose and AUC is the area-under-the-plasma-concentration-time-curve from 0 to 24 h. AUC is calculated from the linear trapezoidal rule by AUC=((C2+C1)/2)×(T2−T1) where C is concentration and T is time.
Pharmacokinetic parameters were calculated by a non-compartmental approach. See, for example, Gibaldi, M. and Perrier, D., Pharmacokinetics, Second Edition, 1982, Marcel Dekker Inc., New York, N.Y., pp 409-418.

[5] = tested on: catD versus beta-secretase (BACE); test: Selectivity for inhibiting BACE over aspartyl protease catD (ratio of IC50 values); type: biochemical; settings: average of four experimental runs
Experimental: Investigation of potential beta-secretase inhibitors produced compounds with increased selectivity for beta-secretase over other aspartyl proteases such as cathepsin D (catD), cathepsin E (catE), HIV protease, and renin. Selectivity was calculated as a ratio of inhibition (IC50) values in which the inhibition of beta-secretase was compared to the inhibition of other aspartyl proteases. […] Alternatively, a compound is selective when its binding affinity is greater for its desired target (e.g., beta-secretase) versus a secondary target (e.g., catD). Accordingly, methods of treatment include administering selective compounds of formula (I) having a lower IC50 value for inhibiting beta-secretase, or greater binding affinity for beta-secretase, than for other aspartyl proteases such as catD, catE, HIV protease, or renin. A selective compound is also capable of producing a higher ratio of desired effects to adverse effects, resulting in a safer method of treatment.
The compounds of formula (I) can be selective for beta-secretase versus catD. […] Selectivity is reported as the ratio of IC50(catD):IC50(BACE).
In the following examples, each value is an average of four experimental runs and multiple values for one compound indicate that more than one experiment was conducted.

[6] = in vivo; settings: CF-1, mouse, iv
Experimental: The following assay was employed to determine the brain penetration of compounds encompassed by the present invention.
In-life phase: Test compounds were administered to CF-1 (20-30 g) mice at 10 μmol/kg (4 to 7 mg/kg) following IV administration in the tail vein. Two time-points, 5 and 60 min, were collected post dose. Four mice were harvested for heparinized plasma and non-perfused brains at each time-point for a total of 8 mice per compound.
Analytical phase: Samples were extracted and evaporated to dryness, then reconstituted and injected onto a reverse phase chromatographic column while monitoring the effluent with a triple quadrupole mass spectrometer. Quantitation was then performed with a 1/x^2 weighted fit of the least-squares regression from calibration standards prepared in parallel with the in vivo samples. The LOQ is generally 1 ng/mL and 0.5 ng/g for the plasma and brain respectively. Data was reported in micromolar (μM) units. Brain levels were corrected for plasma volumes (16 μL/g).

[7] = 100 mg/kg, cortex, inhibition of total A-beta vs vehicle control
[8] = 100 mg/kg, plasma, inhibition of total A-beta vs vehicle control

BACE, sequence (P56817 46-501): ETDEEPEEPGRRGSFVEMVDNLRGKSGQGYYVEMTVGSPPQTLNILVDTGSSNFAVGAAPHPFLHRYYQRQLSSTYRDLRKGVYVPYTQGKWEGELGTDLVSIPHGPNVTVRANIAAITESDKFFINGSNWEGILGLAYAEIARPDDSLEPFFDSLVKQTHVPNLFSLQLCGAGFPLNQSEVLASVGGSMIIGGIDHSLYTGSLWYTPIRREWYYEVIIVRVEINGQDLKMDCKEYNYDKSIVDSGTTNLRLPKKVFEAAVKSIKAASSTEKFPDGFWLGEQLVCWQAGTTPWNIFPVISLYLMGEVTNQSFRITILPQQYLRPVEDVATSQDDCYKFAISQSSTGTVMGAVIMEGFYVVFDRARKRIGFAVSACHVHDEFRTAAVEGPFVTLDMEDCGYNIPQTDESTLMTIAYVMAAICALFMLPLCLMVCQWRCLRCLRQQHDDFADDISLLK

Structure (SMILES) | Efficacy (% Inhibition, 100 mg/kg) cortex [1, 7] [%] | Efficacy (% Inhibition, 100 mg/kg) plasma [1, 8] [%] | EC50 [3] [nM] | bioavailability [4] [%] | other results
CCc1cc(CC(C)(C)C)cc2c1CCCC2NCC(O)C(Cc1cc(F)cc(F)c1)NC(C)=O (single isomer, unassigned) [91.2 Diastereomer A] | 44 | 57 | – | – | –
CC(=O)NC(Cc1cc(F)cc(F)c1)C(O)CNC1CCNc2ccc(CC(C)(C)C)cc21 (single isomer, unassigned) [91.4 Diastereomer B] | 18 | 59 | – | – | –
CCc1ccc2c(c1)C(NCC(O)C(Cc1cc(F)cc(F)c1)NC(C)=O)CCC2 (single isomer, unassigned) [91.5 Diastereomer A] | 35 | 44 | – | – | –
CCc1cc(CC(C)(C)C)cc2c1CCCC2NCC(O)C(Cc1cc(F)cc(F)c1)NC(C)=O (single isomer, unassigned) [91.8 Diastereomer A] | – | – | 12 | 23.3 | EC50 [2]: 32 nM
CC(=O)NC(Cc1cc(F)cc(F)c1)C(O)CNC1CCNc2ccc(CC(C)(C)C)cc21 (single isomer, unassigned) [91.10 Diastereomer B] | – | – | 190 | 5 | EC50 [2]: 13 nM
CC(=O)NC(Cc1cc(F)cc(F)c1)C(O)CNC1CCCc2ccc(CC(C)(C)C)cc21 (stereo not drawn) [Example 91.1, N-{1-(3,5-Difluoro-benzyl)-3-[7-(2,2-dimethyl-propyl)-1,2,3,4-tetrahydro-naphthalen-1-ylamino]-2-hydroxy-propyl}-acetamide] | – | – | 9 | 15 | Efficacy (% Inhibition, 100 mg/kg) cortex ([1]; rat, in vivo): 47%; Efficacy (% Inhibition, 100 mg/kg) plasma ([1]; rat, in vivo): 63%
CC(C)(C)Cc1ccc2c(c1)C(NCC(O)C(Cc1cc(F)cc(F)c1)NC(=O)CF)CCC2 (stereo not drawn) [Example 91.3, N-{1-(3,5-Difluoro-benzyl)-3-[7-(2,2-dimethyl-propyl)-1,2,3,4-tetrahydro-naphthalen-1-ylamino]-2-hydroxy-propyl}-2-fluoro-acetamide] | 14 | 23 | – | – | –
CC(=O)NC(Cc1cc(F)cc(F)c1)C(O)CNC1c2cc(CC(C)(C)C)ccc2CCC1CO (stereo not drawn) [Example 91.6, N-{1-(3,5-Difluoro-benzyl)-3-[7-(2,2-dimethyl-propyl)-2-hydroxymethyl-1,2,3,4-tetrahydro-naphthalen-1-ylamino]-2-hydroxy-propyl}-acetamide] | – | – | – | – | Selectivity IC50 catD/ IC50 BACE [5]: 4.4
CCc1ccc2c(c1)C(NCC(O)C(Cc1cc(F)cc(F)c1)NC(C)=O)CCN2 (stereo not drawn) [Example 91.7, N-[1-(3,5-Difluoro-benzyl)-3-(6-ethyl-1,2,3,4-tetrahydro-quinolin-4-ylamino)-2-hydroxy-propyl]-acetamide] | – | – | – | – | Selectivity IC50 catD/ IC50 BACE [5]: 2.1
CCc1ccc2c(c1)C(NCC(O)C(Cc1cc(F)cc(F)c1)NC(C)=O)CCC2 (stereo not drawn) [Example 91.11, N-[1-(3,5-Difluoro-benzyl)-3-(7-ethyl-1,2,3,4-tetrahydro-naphthalen-1-ylamino)-2-hydroxy-propyl]-acetamide] | – | – | 210 | 14.3 | –
CC(C)(C)NC(=O)[C@@H]1CN(Cc2cccnc2)CCN1C[C@@H](O)C[C@@H](Cc1ccccc1)C(=O)N[C@H]1c2ccccc2C[C@H]1O [Indinavir] | – | – | – | – | concentration at 5 min [6]: 165 nM; concentration at 60 min [6]: 11 nM
